The structures appear in SMILES notation.

What all share (assay type): in vivo, rat
The test system of one assay is SREBP-1. Briefly: Nuclear SREBP-1 localization in liver (Western blot, normalized to Histone 2B), Western diet fed rats. The conditions noted are these: high dose (Compound A 10 mg/kg QD, Compound D 30 mg/kg BID); pooled liver samples per group. Here is the method:
A randomized, vehicle-controlled, 8-parallel arm study was conducted in male Sprague-Dawley rats (Charles River (Boston, MA)) to obtain circulating and hepatic TG levels. Standard laboratory conditions were used to house 96 rats (˜200 g); they were double housed and kept under 12:12-hour reverse light-dark schedule (lights off at 8:00 AM). Rats were randomized into chow or Western diet groups and dose groups upon arrival and were given a 14-day lead-in period on either standard rat chow or Western diet prior to the start of the study. Standard Laboratory Rodent chow diet, 5053, was from LabDiet (PMI, St Louis, Missouri). Western Diet, D12079Bi, was from Research Diets (New Brunswick, New Jersey). […]
Nuclear and Membrane fractions were prepared by ultracentrifugation using standard methods from a portion of the pulverized liver samples, that were pooled per treatment group. Samples from the nuclear extract and the membrane fractions were analyzed by Western blotting for SREBP1. […] Nuclear SREBP1 levels were quantified using relative units and normalized to Histone 2B to control for sample loss during the nuclear fractionation and gel loading.

The subject of assay [1] is acetyl-CoA carboxylase (ACC1). The experiment in a line: Hepatic lipogenic gene expression (qPCR), Western diet fed rats: ACC1. The settings on record: Actb housekeeping gene, Day 28 liver. Here is the method:
(§1) A randomized, vehicle-controlled, 8-parallel arm study was conducted in male Sprague-Dawley rats (Charles River (Boston, MA)) to obtain circulating and hepatic TG levels. Standard laboratory conditions were used to house 96 rats (˜200 g); they were double housed and kept under 12:12-hour reverse light-dark schedule (lights off at 8:00 AM). Rats were randomized into chow or Western diet groups and dose groups upon arrival and were given a 14-day lead-in period on either standard rat chow or Western diet prior to the start of the study. Standard Laboratory Rodent chow diet, 5053, was from LabDiet (PMI, St Louis, Missouri). Western Diet, D12079Bi, was from Research Diets (New Brunswick, New Jersey).
(§2) Starting on Day 1 of the study, rats were dosed orally (10 mL/kg) with either vehicle control (0.5% MC (wt/volume %) in dionized water), low or high doses of Compound A (1 mg/kg or 10 mg/kg QD, respectively), low or high doses of Compound D (5 mg/kg or 30 mg/kg BID respectively), or co-administration of low doses (Compound A at 1 mg/kg QD and Compound D at 5 mg/kg BID), or co-administration of high doses (Compound A at 10 mg/kg QD and Compound D at 30 mg/kg BID) […]
(§3) Another portion of the pulverized liver was processed and analyzed for lipogenic gene expression. Rat taqman probes against ACC1, FASN, SCD1, PCSK9 and SREBP-1c were all assessed using Actb as housekeeping gene on qPCR.

The test system of assay [2] is fatty acid synthase (FASN). The experiment in a line: Hepatic lipogenic gene expression (qPCR), Western diet fed rats: FASN. The settings on record: Actb housekeeping gene. Here is the method: as §1, §2, §3
Assay [3] concerns CDAHFD fed Male Wistar Hann rats. Briefly: Liver stiffness by shearwave elastography, CDAHFD fed rats. The conditions noted are these: twice daily for 6 weeks, Compound A 5 mg/kg, Compound D 30 mg/kg, or co-administration. Here is the method:
(§4) A randomized, vehicle-controlled, 5-parallel arm study was conducted in male Wistar-Han rats (Charles River (Boston, MA)) fed a choline-deficient and high fat diet (CDAHFD) (Research diets; A16092003) to identify differences in improvements in markers of hepatic inflammation and fibrosis when administering either Compound A or Compound D alone as monotherapy or in combination. Standard laboratory conditions were used to house 60 rats (˜200 g); they were double housed and kept under 12:12-hour reverse light-dark schedule (lights off at 8:00 AM). Rats were fed choline deficient and high fat diet (CDAHFD) beginning 6-weeks prior to initiation of the study. Rats, randomized into 4 dosing groups (n=12/group), received twice daily administration of vehicle, Compound A (5 mg/kg) monotherapy, Compound D (30 mg/kg) monotherapy, or co-administration Compound A (5 mg/kg) and Compound D (30 mg/kg) for a period of 6-weeks. Animals (n=12) remaining on normal chow throughout the study and administered twice-daily vehicle were used as a control group. Blood samples were collected prior to starting compound administration and 3- and 6-week post compound administration for the assessment of circulating markers. […] Histology was assessed following 6-weeks of drug administration which corresponded to 12 weeks on the CDAHFD. […]

Assay [4] concerns alpha smooth muscle actin (αSMA). The experiment in a line: Hepatic αSMA immunohistochemistry, CDAHFD fed rats. The settings on record: twice daily for 6 weeks; Compound A 5 mg/kg, Compound D 30 mg/kg, or co-administration; 12 weeks on CDAHFD. Here is the method:
as §4, with “6-weeks.” for “6-weeks. Animals (n=12) remaining on normal chow throughout the study and administered twice-daily vehicle were used as a control group. Blood samples were collected prior to starting compound administration and 3- and 6-week post compound administration for the assessment of circulating markers.”
(§5) Following the 12-weeks on CDAHFD, the animals were sacrificed by CO2 asphyxiation. […] A portion of the pulverized liver sample from each animal was processed and analyzed for gene expression markers of fibrogenesis. Rat taqman probes against […]SMA and COL1A1 were all assessed using Actb as housekeeping gene on qPCR. […]

For a further assay, the system named is Collagen. The experiment in a line: Hepatic Picrosirius red staining (collagen), CDAHFD fed rats. The settings on record: twice daily for 6 weeks; Compound A 5 mg/kg, Compound D 30 mg/kg, or co-administration; 12 weeks on CDAHFD. Here is the method: as §4, with “6-weeks.” for “6-weeks. Animals (n=12) remaining on normal chow throughout the study and administered twice-daily vehicle were used as a control group. Blood samples were collected prior to starting compound administration and 3- and 6-week post compound administration for the assessment of circulating markers.”
as §5

Assay [5] relates to Ionized calcium binding adaptor molecule 1 (Iba1). The experiment in a line: Hepatic Iba1 staining, CDAHFD fed rats. The conditions noted are these: twice daily for 6 weeks; Compound A 5 mg/kg, Compound D 30 mg/kg, or co-administration; 12 weeks on CDAHFD. Here is the method: as §4, with “6-weeks.” for “6-weeks. Animals (n=12) remaining on normal chow throughout the study and administered twice-daily vehicle were used as a control group. Blood samples were collected prior to starting compound administration and 3- and 6-week post compound administration for the assessment of circulating markers.”
as §5

Assay [6] concerns alpha smooth muscle actin (αSMA). Briefly: Hepatic αSMA gene expression (qPCR), CDAHFD fed rats. The settings on record: twice daily for 6 weeks, Compound A 5 mg/kg, Compound D 30 mg/kg, or co-administration, Actb. Here is the method: as §4, with “6-weeks.” for “6-weeks. Animals (n=12) remaining on normal chow throughout the study and administered twice-daily vehicle were used as a control group. Blood samples were collected prior to starting compound administration and 3- and 6-week post compound administration for the assessment of circulating markers.”
(§6) Following the 12-weeks on CDAHFD, the animals were sacrificed by CO2 asphyxiation. […] A portion of the pulverized liver sample from each animal was processed and analyzed for gene expression markers of fibrogenesis. Rat taqman probes against […]SMA and COL1A1 were all assessed using Actb as housekeeping gene on qPCR.

The next assay has as its system COL1A1. The experiment in a line: Hepatic COL1A1 gene expression (qPCR), CDAHFD fed rats. The settings on record: twice daily for 6 weeks, Compound A 5 mg/kg, Compound D 30 mg/kg, or co-administration, Actb. Here is the method: as §4, with “6-weeks.” for “6-weeks. Animals (n=12) remaining on normal chow throughout the study and administered twice-daily vehicle were used as a control group. Blood samples were collected prior to starting compound administration and 3- and 6-week post compound administration for the assessment of circulating markers.”
as §6

Regarding `CCOc1cccnc1Oc1cncc(-c2ncc(C(=O)N[C@H]3CCOC3)cn2)c1` [Compound D, (S)-2-(5-((3-ethoxypyridin-2-yl)oxy)pyridin-3-yl)-N-(tetrahydrofuran-3-yl)pyrimidine-5-carboxamide], the “nuclear localization of SREBP-1, relative to vehicle treated Western diet fed rats” value with SREBP-1 was “reduced SREBP-1 nuclear localization”. In addition, the “hepatic ACC1 gene expression relative to Western Diet fed and vehicle treated animals” value in assay [1] is “decreased expression”. Also, in assay [2] (Day 28 liver), the “hepatic FASN gene expression relative to Western Diet fed and vehicle treated animals” value is “decreased expression”. The “liver stiffness (shearwave elastography, kPa)” value in [3] is reported as “reduced liver stiffness”. Moreover, the “reduction of liver αSMA staining” value in [4] amounted to 23%. For the same compound, in the assay with Collagen, the “reduction of Picosrius red (PSR) staining” value turned out to be 20%. For the same compound, the “reduction of Iba1 staining” value in assay [5] was “did not alter”. Further, the “hepatic αSMA gene expression” value in assay [6] is on record as “reduced”. In addition, the “hepatic collagen A1A (COL1A1) gene expression” value in the assay with COL1A1 is on record as “reduced”.

As to `COc1cc(C(=O)N2CCC3(CC2)CC(=O)c2c(cnn2C(C)C)C3)cc(-c2ccc(C(=O)O)cc2)n1` [Compound A, 4-(4-(1-isopropyl-7-oxo-1,4,6,7-tetrahydrospiro[indazole-5,4′-piperidine]-1′-carbonyl)-6-methoxypyridin-2-yl)benzoic acid], the “nuclear localization of SREBP-1, relative to vehicle treated Western diet fed rats” value in the assay with SREBP-1 is “increased nuclear localization of SREBP-1”. Moreover, the “hepatic ACC1 gene expression relative to Western Diet fed and vehicle treated animals” value in [1] is listed as “trended to further increase”. The “hepatic FASN gene expression relative to Western Diet fed and vehicle treated animals” value in assay [2] (Compound A high dose only (10 mg/kg QD)) is on record as “trended to further increase”. In addition, in assay [3], the “liver stiffness (shearwave elastography, kPa)” value is given as “reduced liver stiffness”. The “reduction of liver αSMA staining” value in assay [4] is given as 41%. For the same compound, the “reduction of Picosrius red (PSR) staining” value with Collagen came to 26%. The “reduction of Iba1 staining” value in [5] came to 15%. Besides, in assay [6], the “hepatic αSMA gene expression” value is given as “reduced”. Moreover, the “hepatic collagen A1A (COL1A1) gene expression” value in the assay on COL1A1 is on record as “reduced”.

The values are drawn from US12247022B2, “Combinations for treatment of NASH/NAFLD and related diseases” (Pfizer Inc., priority 2018, dated 2025).
